Measured values reported in patent US9346815B2, “5-chloro-2-difluoromethoxyphenyl pyrazolopyrimidine compounds, compositions and methods of use thereof” (Genentech, Inc., priority 2014, dated 2016).
Counter-ions that a name gives are not always drawn.

Experiments:
[1] = biological target: isolated recombinant JAK1 kinase domain (Homo sapiens (Human), UniProt P23458); test: JAK1 enzyme assay (Caliper LabChip, peptide phosphorylation); assay type: biochemical; settings: isolated recombinant JAK1 kinase domain, 25 μM ATP
[2] = biological target: isolated recombinant JAK2 kinase domain (Homo sapiens (Human), UniProt O60674); test: JAK2 enzyme assay (Caliper LabChip, peptide phosphorylation); assay type: biochemical; settings: 25 μM ATP
[3] = tested on: JAK1-dependent STAT6 phosphorylation downstream of IL-13 stimulation in BEAS-2B human bronchial epithelial cells; test: JAK1 pathway assay in BEAS-2B cells (IL-13-pSTAT6, MSD); assay type: cell-based; settings: read-out: IL13-pSTAT6 EC50 (uM)_BEAS-2B
Method in brief: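 Inhibitors were added to TF-1 cells (GM-CSF-starved, serum-free) for 30 min or to BEAS-2B cells (complete medium) for 1 hr at 37° C. MSD detected pSTAT6.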

Sequence of isolated recombinant JAK1 kinase domain (P23458 875-1153): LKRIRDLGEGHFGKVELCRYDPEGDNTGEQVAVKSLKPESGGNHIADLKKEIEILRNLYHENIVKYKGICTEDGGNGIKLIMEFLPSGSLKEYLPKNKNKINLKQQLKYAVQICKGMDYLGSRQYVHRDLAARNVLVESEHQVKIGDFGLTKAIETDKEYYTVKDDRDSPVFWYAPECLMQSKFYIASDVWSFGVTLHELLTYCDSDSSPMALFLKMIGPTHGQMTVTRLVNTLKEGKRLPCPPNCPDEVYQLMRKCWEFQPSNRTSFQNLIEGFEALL
Sequence of isolated recombinant JAK2 kinase domain (O60674 849-1124): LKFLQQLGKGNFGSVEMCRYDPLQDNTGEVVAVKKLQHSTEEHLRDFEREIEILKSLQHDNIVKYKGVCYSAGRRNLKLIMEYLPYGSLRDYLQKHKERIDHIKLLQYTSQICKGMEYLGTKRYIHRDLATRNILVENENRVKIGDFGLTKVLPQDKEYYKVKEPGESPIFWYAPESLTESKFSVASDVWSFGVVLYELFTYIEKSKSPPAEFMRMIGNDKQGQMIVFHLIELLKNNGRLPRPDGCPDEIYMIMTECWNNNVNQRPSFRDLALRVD

| SMILES | Ki [1] | Ki [2] | EC50 [3] |
| --- | --- | --- | --- |
| O=C(Nc1cn(CCN[C@H]2CCOC2)nc1-c1cc(Cl)ccc1OC(F)F)c1cnn2cccnc12 [Example 399, N-(3-(5-chloro-2-(difluoromethoxy)phenyl)-1-(2-((S)-tetrahydrofuran-3-ylamino)ethyl)-1H-pyrazol-4-yl)pyrazolo[1,5-a]pyrimidine-3-carboxamide] | 0.9 nM | 0.39 nM | 0.0232 µM |
| O=C(Nc1cn(CC(=O)N2CCC(C(=O)OCC3CCNCC3)CC2)nc1-c1cc(Cl)ccc1OC(F)F)c1cnn2cccnc12 [Example 341, piperidin-4-ylmethyl 1-(2-[3-[5-chloro-2-(difluoromethoxy)phenyl]-4-[pyrazolo[1,5-a]pyrimidine-3-amido]-1H-pyrazol-1-yl]acetyl)piperidine-4-carboxylate] | 0.53 nM | 2.62 nM | 0.534 µM |
| O=C(O)CN(CCn1cc(NC(=O)c2cnn3cccnc23)c(-c2cc(Cl)ccc2OC(F)F)n1)Cc1cccnc1 [Example 363, 2-[(2-[3-[5-chloro-2-(difluoromethoxy)phenyl]-4-[pyrazolo[1,5-a]pyrimidine-3-amido]-1H-pyrazol-1-yl]ethyl)(pyridin-3-ylmethyl)amino]acetic acid] | 4.15 nM | 1.21 nM | 3.78 µM |
| O=C(Nc1cn(Cc2cn(C3CCN(C4CCOC4)CC3)nn2)nc1-c1cc(Cl)ccc1OC(F)F)c1cnn2cccnc12 (stereo not drawn) [Example 455, N-(3-(5-chloro-2-(difluoromethoxy)phenyl)-1-((1-(1-(tetrahydrofuran-3-yl)piperidin-4-yl)-1H-1,2,3-triazol-4-yl)methyl)-1H-pyrazol-4-yl)pyrazolo[1,5-a]pyrimidine-3-carboxamide] | 0.3 nM | 0.15 nM | 0.021 µM |
| O=C(Nc1cn(CC(=O)N2CCC(N3C[C@@H]4C[C@H]3CO4)CC2)nc1-c1cc(Cl)ccc1OC(F)F)c1cnn2cccnc12 [Example 447, N-(1-(2-(4-((1S,4S)-5-oxa-2-aza-bicyclo[2.2.1]heptan-2-yl)piperidin-1-yl)-2-oxoethyl)-3-(5-chloro-2-(difluoromethoxy)phenyl)-1H-pyrazol-4-yl)pyrazolo[1,5-a]pyrimidine-3-carboxamide] | 0.49 nM | 1.25 nM | 0.0161 µM |
| O=C(Nc1cn(CCNCc2ccccn2)nc1-c1cc(Cl)ccc1OC(F)F)c1cnn2cccnc12 [Example 314, N-[3-[5-chloro-2-(difluoromethoxy)phenyl]-1-[2-[(pyridin-2-ylmethyl)amino]ethyl]-1H-pyrazol-4-yl]pyrazolo[1,5-a]pyrimidine-3-carboxamide] | 0.62 nM | 0.39 nM | 0.0995 µM |
| O=C(Nc1cn(CC(=O)N2CCN(Cc3ncco3)CC2)nc1-c1cc(Cl)ccc1OC(F)F)c1cnn2cccnc12 [Example 380, N-[3-[5-chloro-2-(difluoromethoxy)phenyl]-1-[2-[4-(1,3-oxazol-2-ylmethyl)piperazin-1-yl]-2-oxoethyl]-1H-pyrazol-4-yl]pyrazolo[1,5-a]pyrimidine-3-carboxamide] | 0.3 nM | 0.68 nM | 0.0481 µM |
| CSc1ccc(CNCCn2cc(NC(=O)c3cnn4cccnc34)c(-c3cc(Cl)ccc3OC(F)F)n2)cc1 [Example 346, N-[3-[5-chloro-2-(difluoromethoxy)phenyl]-1-[2-([[4-(methylsulfanyl)phenyl]methyl]amino)ethyl]-1H-pyrazol-4-yl]pyrazolo[1,5-a]pyrimidine-3-carboxamide formate] | 0.37 nM | 0.31 nM | 0.115 µM |
| O=C(Nc1cn(CC(=O)N2CCN(CC3CC3)CC2)nc1-c1cc(Cl)ccc1OC(F)F)c1cnn2cccnc12 [Example 374, N-[3-[5-chloro-2-(difluoromethoxy)phenyl]-1-[2-[4-(cyclopropylmethyl)piperazin-1-yl]-2-oxoethyl]-1H-pyrazol-4-yl]pyrazolo[1,5-a]pyrimidine-3-carboxamide] | 0.45 nM | 0.88 nM | 0.0295 µM |
